Source: ChEMBL document CHEMBL5543122, “Discovery of HC-7366: An Orally Bioavailable and Efficacious GCN2 Kinase Activator” (J Med Chem, 2024)
Active and inactive are the calls of the source. The calls are words filed in the database; no cut-off is given here.

Key:
[1] = physchem; settings: 1-octanol/PBS, pH 7.4
[2] = molecular target: T1, Eukaryotic translation initiation factor 2-alpha kinase 3 (Homo sapiens, UniProt Q9NZJ5); assay: Activation of PERK in HEK293 cells transfected with ATF4 response element preincubated for 30 mins followed by tunicamycin addition and measured after 6 hrs by One-Glo reagent based plate reader assay; format: cell-based
T1 sequence (Q9NZJ5 whole entry): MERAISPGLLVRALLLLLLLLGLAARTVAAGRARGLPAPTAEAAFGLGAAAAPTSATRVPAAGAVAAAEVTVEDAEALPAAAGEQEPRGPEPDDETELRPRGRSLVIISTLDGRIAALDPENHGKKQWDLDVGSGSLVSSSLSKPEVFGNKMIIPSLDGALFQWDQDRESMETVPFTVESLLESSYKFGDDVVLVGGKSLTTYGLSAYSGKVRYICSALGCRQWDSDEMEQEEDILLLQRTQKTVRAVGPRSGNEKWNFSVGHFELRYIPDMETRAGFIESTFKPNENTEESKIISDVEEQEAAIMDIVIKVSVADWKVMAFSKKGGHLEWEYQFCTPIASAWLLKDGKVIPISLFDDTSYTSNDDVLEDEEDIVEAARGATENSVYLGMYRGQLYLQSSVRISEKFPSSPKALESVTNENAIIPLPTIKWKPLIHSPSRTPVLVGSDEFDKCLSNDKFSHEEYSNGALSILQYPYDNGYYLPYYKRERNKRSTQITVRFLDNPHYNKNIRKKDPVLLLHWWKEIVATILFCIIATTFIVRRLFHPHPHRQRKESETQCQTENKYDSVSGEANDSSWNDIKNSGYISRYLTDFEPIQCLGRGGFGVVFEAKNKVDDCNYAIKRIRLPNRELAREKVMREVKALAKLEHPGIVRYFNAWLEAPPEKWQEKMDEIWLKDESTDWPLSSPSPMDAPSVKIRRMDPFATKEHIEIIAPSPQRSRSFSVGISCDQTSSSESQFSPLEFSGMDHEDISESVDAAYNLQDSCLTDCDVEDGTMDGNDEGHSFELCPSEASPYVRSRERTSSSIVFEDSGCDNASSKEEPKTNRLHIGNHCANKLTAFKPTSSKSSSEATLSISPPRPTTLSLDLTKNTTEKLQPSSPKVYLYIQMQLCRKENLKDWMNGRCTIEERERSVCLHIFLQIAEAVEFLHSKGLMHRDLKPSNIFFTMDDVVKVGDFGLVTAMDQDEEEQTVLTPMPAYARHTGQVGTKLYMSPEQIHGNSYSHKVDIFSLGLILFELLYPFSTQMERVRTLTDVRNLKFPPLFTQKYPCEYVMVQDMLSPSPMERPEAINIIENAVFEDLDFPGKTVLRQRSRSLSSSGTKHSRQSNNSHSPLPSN

[3] = Intrinsic clearance in human hepatocytes assessed per 10^4 cells at 1 uM measured upto 120 mins by UPLC-MS/MS analysis; format: ADME, cell-based, Hepatocyte; settings: 2 h
[4] = Half-life in Sprague-Dawley rat at 1 mg/kg, iv measured upto 24 hrs; format: ADME, organism-based; settings: in vivo
[5] = Unbound volume of distribution at steady state in Sprague-Dawley rat at 1 mg/kg, iv measured upto 24 hrs; format: ADME, organism-based; settings: in vivo
[6] = Unbound Cmax in Sprague-Dawley rat at 3 mg/kg, po measured upto 24 hrs; format: ADME, organism-based; settings: in vivo
[7] = molecular target: T2, Eukaryotic translation initiation factor 2-alpha kinase 3 (Homo sapiens) (UniProt Q9NZJ5); assay: Activation of PERK in HEK293 cells transfected with ATF4 response element assessed as unbound effective concentration preincubated for 30 mins followed by tunicamycin addition and measured after 6 hrs by One-Glo reagent based plate reader assay; format: cell-based; settings: filed as activator, time 6.5 hrs
T2 sequence (whole entry): T1 sequence (Q9NZJ5 whole entry)

[8] = Protein binding in HEK293 cells assessed as free fraction; format: ADME, cell-based; settings: human
[9] = Unbound fraction in Sprague-Dawley rat plasma at 1 mg/kg, iv measured upto 24 hrs; format: ADME, organism-based
[10] = Cmax in Sprague-Dawley rat at 3 mg/kg, po measured upto 24 hrs; format: ADME, organism-based; settings: in vivo
[11] = Volume of distribution at steady state in Sprague-Dawley rat at 1 mg/kg, iv measured upto 24 hrs; format: ADME, organism-based; settings: in vivo, read-out: Vdss
[12] = Unbound AUC in Sprague-Dawley rat at 3 mg/kg, po measured upto 24 hrs; format: ADME, organism-based; settings: in vivo
[13] = Oral bioavailability in Sprague-Dawley rat at 3 mg/kg measured upto 24 hrs; format: ADME, organism-based; settings: in vivo; for F: po, 3 mg/kg, 24 h
[14] = Intrinsic clearance in rat hepatocytes assessed per 10^4 cells at 1 uM measured upto 120 mins by UPLC-MS/MS analysis; format: ADME, cell-based, Hepatocyte; settings: 2 h
[15] = Unbound clearance in Sprague-Dawley rat plasma at 1 mg/kg, iv measured upto 24 hrs; format: ADME, organism-based; settings: in vivo
[16] = test system: MOLM-16; assay: Antitumor activity against human MOLM16 cells xenografted in BALB/c nude mouse assessed as reduction in tumor growth at 1 to 3 mg/kg administered twice a day for 17 days; format: functional, organism-based; settings: dose 1-3 mg/kg, time 17.0 day
[17] = test system: Mus musculus; assay: In vivo activation of GCN2 in BALB/c nude mouse xenografted with human HT-1080 cells assessed as […] ASNS protein level in tumor at 0.3 to 3 mg/kg after 6 hrs; format: functional, organism-based; settings: dose 0.3-3 mg/kg
[18] = test system: Mus musculus; assay: In vivo activation of GCN2 in BALB/c nude mouse xenografted with human HT-1080 cells assessed as […] ATF4 protein level in tumor at 0.3 to 3 mg/kg after 6 hrs; format: functional, organism-based; settings: dose 0.3-3 mg/kg
[19] = molecular target: Cytochrome P450 3A4 (Homo sapiens, UniProt P08684); assay: Inhibition of CYP3A4 in human liver microsomes using midazolam substrate incubated for 5 mins in presence of NADPH by UPLC-MS/MS analysis
Cytochrome P450 3A4, sequence (P08684 whole entry): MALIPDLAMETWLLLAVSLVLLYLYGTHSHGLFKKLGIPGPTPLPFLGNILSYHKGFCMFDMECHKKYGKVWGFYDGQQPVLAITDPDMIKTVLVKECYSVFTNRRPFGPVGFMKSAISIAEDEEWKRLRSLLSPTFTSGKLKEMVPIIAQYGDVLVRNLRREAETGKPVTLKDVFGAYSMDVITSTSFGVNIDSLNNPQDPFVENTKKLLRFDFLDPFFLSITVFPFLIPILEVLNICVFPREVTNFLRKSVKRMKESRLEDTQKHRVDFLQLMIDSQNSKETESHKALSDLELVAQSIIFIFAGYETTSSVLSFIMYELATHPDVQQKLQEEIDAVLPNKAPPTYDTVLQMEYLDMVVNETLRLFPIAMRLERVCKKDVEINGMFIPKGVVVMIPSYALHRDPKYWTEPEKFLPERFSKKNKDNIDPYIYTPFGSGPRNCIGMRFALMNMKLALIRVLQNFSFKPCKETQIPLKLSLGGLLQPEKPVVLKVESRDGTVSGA

[20] = molecular target: T3, eIF-2-alpha kinase GCN2 (Homo sapiens, UniProt Q9P2K8); assay: Inhibition of GCN2 (unknown origin) using GFP-eIF2alpha as substrate incubated for 1.5 hrs in presence of ATP by plate reader analysis
T3 sequence (Q9P2K8 whole entry): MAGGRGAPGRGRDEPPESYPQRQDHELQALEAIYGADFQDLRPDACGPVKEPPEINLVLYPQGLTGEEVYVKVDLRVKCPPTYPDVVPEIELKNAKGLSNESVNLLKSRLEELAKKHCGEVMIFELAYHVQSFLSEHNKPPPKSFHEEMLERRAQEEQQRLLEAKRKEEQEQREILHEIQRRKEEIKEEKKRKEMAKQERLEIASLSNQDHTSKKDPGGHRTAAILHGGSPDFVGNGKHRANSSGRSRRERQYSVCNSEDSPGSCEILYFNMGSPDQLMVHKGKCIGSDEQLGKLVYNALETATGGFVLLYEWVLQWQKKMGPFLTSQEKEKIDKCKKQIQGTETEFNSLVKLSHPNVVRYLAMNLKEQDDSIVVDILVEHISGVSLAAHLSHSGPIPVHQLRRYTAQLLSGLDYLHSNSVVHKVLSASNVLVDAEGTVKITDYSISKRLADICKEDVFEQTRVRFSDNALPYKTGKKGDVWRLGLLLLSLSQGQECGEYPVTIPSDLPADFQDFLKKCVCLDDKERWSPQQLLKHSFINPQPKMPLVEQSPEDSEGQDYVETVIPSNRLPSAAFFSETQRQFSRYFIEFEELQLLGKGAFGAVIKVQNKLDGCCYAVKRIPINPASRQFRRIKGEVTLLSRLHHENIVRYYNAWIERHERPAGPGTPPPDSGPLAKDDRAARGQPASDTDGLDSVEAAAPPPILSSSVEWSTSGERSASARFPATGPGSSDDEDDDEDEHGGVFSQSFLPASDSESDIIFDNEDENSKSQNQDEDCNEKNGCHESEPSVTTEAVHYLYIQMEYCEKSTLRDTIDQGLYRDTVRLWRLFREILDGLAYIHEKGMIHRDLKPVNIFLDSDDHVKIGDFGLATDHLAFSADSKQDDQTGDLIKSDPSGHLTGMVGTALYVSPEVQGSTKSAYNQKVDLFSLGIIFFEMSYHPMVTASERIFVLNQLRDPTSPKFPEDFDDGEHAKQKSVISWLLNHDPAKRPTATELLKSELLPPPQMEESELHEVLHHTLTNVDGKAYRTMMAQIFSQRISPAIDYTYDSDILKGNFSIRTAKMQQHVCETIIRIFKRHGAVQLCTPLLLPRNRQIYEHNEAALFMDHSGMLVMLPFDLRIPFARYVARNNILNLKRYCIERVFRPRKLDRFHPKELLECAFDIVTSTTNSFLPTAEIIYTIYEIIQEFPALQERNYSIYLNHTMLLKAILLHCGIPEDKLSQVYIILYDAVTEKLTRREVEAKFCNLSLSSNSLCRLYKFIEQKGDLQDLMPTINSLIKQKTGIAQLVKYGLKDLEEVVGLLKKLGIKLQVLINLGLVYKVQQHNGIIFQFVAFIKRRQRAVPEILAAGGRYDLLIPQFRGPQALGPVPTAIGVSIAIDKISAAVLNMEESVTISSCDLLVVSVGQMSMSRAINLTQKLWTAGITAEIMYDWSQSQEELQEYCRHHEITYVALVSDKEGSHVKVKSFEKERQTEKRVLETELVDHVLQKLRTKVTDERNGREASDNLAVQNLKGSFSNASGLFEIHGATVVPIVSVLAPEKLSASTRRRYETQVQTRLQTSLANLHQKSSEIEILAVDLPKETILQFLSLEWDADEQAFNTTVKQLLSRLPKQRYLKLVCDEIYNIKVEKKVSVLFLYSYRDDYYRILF

[21] = molecular target: T3, eIF-2-alpha kinase GCN2; assay: Activation of GCN2 in HEK293 cells transfected with ATF4 response element preincubated for 30 mins followed by halofuginone addition and measured after 6 hrs by One-Glo reagent based plate reader assay; format: cell-based
[22] = molecular target: T3, eIF-2-alpha kinase GCN2; settings: HEK293, filed as activator, time 6.5 hrs

| Compound | logD at 1 h [1] | EC50 [2] [µM] | CLH [3] [µL/min] | half-life [4] [h] | fVdss [5] [L/kg] | fCmax [6] [nM] | fEC50 [7] [nM] | fraction unbound [8] | fraction unbound at 24 h [9] | Cmax [10] [µM] | Vd [11] [L/kg] | fAUC [12] [µM·h] | F [13] [%] | CLH [14] [µL/min] | CL free [15] [mL/min/kg] | further results |
| --- | --- | --- | --- | --- | --- | --- | --- | --- | --- | --- | --- | --- | --- | --- | --- | --- |
| CNC(=O)c1ncn2cc(-c3c(F)ccc(NS(=O)(=O)c4cc(F)cnc4C)c3F)ccc12 | 1.9 | 5.8 |  |  |  |  |  |  |  |  |  |  |  |  |  |  |
| CNC(=O)c1ncn2c1CC[C@H](c1c(F)ccc(NS(=O)(=O)c3cc(F)cnc3OC)c1F)C2 |  | 1.5 | 7.8 | 0.9 | 15 | 180 | 1000 | 0.71 | 0.012 | 14.2 | 0.19 | 0.14 | 95 | 13 | 340 |  |
| COc1ncc(Cl)cc1S(=O)(=O)Nc1ccc(F)c(-c2ccc3c(-c4ncc[nH]4)ncn3c2)c1F |  | 1.7 | 2.8 | 2.4 | 93 | 16 | 170 | 0.1 | 0.001 | 14.3 | 0.1 | 0.093 | 70 | 15 | 390 |  |
| CNC(=O)c1ncn2nc(-c3c(F)ccc(NS(=O)(=O)c4cc(Cl)cnc4OC)c3F)ccc12 |  | 0.87 | 3.8 |  |  |  | 280 | 0.32 |  |  |  |  |  | 5.9 |  |  |
| CNC(=O)c1ncn2cc(-c3c(F)ccc(NS(=O)(=O)c4cc(Cl)cnc4OC)c3F)ncc12 |  |  |  |  |  |  | 2400 |  |  |  |  |  |  |  |  | Activity [16]: Active; Activity [17]: Active; Activity [18]: Active |
| CNC(=O)c1ncn2cc(-c3c(F)ccc([N-]S(=O)(=O)c4cc(Cl)cnc4OC)c3F)ncc12.[K+] |  |  |  |  |  | 28 |  |  |  | 40 |  | 0.14 |  |  |  | bioavailability ([13]; Sprague-Dawley): 88% |
| CNC(=O)c1ncn2c1CC[C@H](c1c(F)ccc(NS(=O)(=O)c3cc(Cl)cnc3OC)c1F)C2 |  | 0.46 |  |  |  |  | 240 | 0.45 |  |  |  |  |  |  |  | IC50 [19]: 33 µM; IC50 [20]: 0.069 µM; EC50 [21]: 0.24 µM; fEC50 [22]: 110 nM |
| CNC(=O)c1ncn2c(F)c(-c3c(F)ccc(NS(=O)(=O)c4cc(Cl)cnc4OC)c3F)ccc12 | 3 | 1.5 |  |  |  |  | 350 |  |  |  |  |  |  |  |  |  |
| CNC(=O)c1ncn2cc(-c3c(F)ccc(NS(=O)(=O)c4cc(C#N)cnc4OC)c3F)ccc12 | 1.6 | > 10 |  |  |  |  |  |  |  |  |  |  |  |  |  |  |
| CNC(=O)c1ncn2cc(-c3c(F)ccc(NS(=O)(=O)c4cc(F)cnc4OC)c3F)ccc12 | 2.3 | > 10 |  |  |  |  |  |  |  |  |  |  |  |  |  |  |
| COc1ncc(Cl)cc1S(=O)(=O)Nc1ccc(F)c(-c2ccc3c(-c4ncc[nH]4)n[nH]c3c2F)c1F |  | 1.4 | 4.4 | 3.8 | 180 | 0.31 | 55 | 0.04 | 0.001 | 0.62 | 0.09 | 0.0011 | 1.5 | 8.2 | 740 |  |
| CNC(=O)c1ncn2cc(-c3c(F)ccc(NS(=O)(=O)c4cc(Cl)cnc4OC)c3F)ccc12 |  | 4.9 | 9 | 4.3 | 320 | 6.2 | 1100 | 0.22 | 0.001 | 20.6 | 0.1 | 0.029 | 54 | 9.8 | 930 |  |
| CNC(=O)c1n[nH]c2c(F)c(-c3c(F)ccc(NS(=O)(=O)c4cc(Cl)cnc4OC)c3F)ccc12 |  | 6.1 | 5.8 | 8.9 | 56 | 20 | 180 | 0.03 | 0.002 | 10.4 | 0.11 | 0.13 | 25 | 11 | 88 |  |
